Values quoted from earlier work as cited in patent publication US20150216948A1, “CYTOCHROME P450 SUICIDE GENE SYSTEM” (priority 2012, published 2015).

Details: 5-day infusion regimens, patients with lung and liver cancers

With `CC(O)CCC(=O)c1ccoc1` (stereo not shown) [4-IPO, 1-[3-furyl]-4-hydroxypentanone] as the compound, how does the “serum concentrations, highly efficient for killing human P427 mutant CYP4B1 transgenic human cells within 72 h” value read?
Its value is “up to 90 μM”.
